Source: the NIST ThermoML archive (doi:10.1021/je0340755)

Assay: xn = mol fraction of the nth substance listed
Conditions: 101.3 kPa, Liquid; for viscosity: Capillary tube (Ostwald / Ubbelohde) method

CC(O)C(C)O (configuration not stated) [2,3-butanediol] + O
Conditions	mass density, 298.15 K [kg/m3]	mass density, 308.15 K [kg/m3]	mass density, 318.15 K [kg/m3]	speed of sound, 298.15 K [m/s]	speed of sound, 308.15 K [m/s]	speed of sound, 318.15 K [m/s]	viscosity, 298.15 K [mPa·s]	viscosity, 308.15 K [mPa·s]	viscosity, 318.15 K [mPa·s]
x2 = 0.0546	999.76	993.26	985.33	1483	1446.8	1418.4	41.89	21.57	12.04
x2 = 0.1435	1001.87	995.29	987.34	1501.3	1464.7	1436	36.73	19.07	10.64
x2 = 0.2458	1004.58	997.92	989.9	1520.7	1483.6	1454.5	30.5	16.07	8.953
x2 = 0.3539	1007.87	1001.1	993.04	1548.5	1510.7	1481.1	24.04	12.95	7.207
x2 = 0.4502	1011.19	1004.34	996.28	1576.9	1538.4	1508.2	18.63	10.32	5.737
x2 = 0.4989	1013.01	1006.11	998.08	1589.5	1550.7	1520.3	16.08	9.06	5.036
x2 = 0.5503	1014.99	1008.06	1000.07	1604.9	1565.8	1535.1	13.54	7.8	4.339
x2 = 0.6581	1019.13	1012.2	–	1637.2	1597.3	–	8.918	5.443	3.047
x2 = 0.7518	1021.95	1015.17	–	1667.8	1627.1	–	5.811	3.773	2.15
x2 = 0.8626	1021.36	1015.24	–	1673.2	1632.4	–	3.267	2.265	1.37
x2 = 0.9092	1017.89	1012.39	–	1657.9	1617.5	–	2.463	1.743	1.108
x2 = 0.9148	1017.25	1011.85	–	1651.5	1611.2	–	2.372	1.682	1.078
x2 = 0.9248	1015.95	1010.74	–	1645.4	1605.3	–	2.21	1.574	1.025
x2 = 0.9305	1015.11	1010.02	–	1640.3	1600.3	–	2.118	1.512	0.995
x2 = 0.935	1014.4	1009.4	–	–	1597.2	–	2.044	1.463	0.969
x2 = 0.9452	1012.61	1007.83	–	–	1588.3	–	1.878	1.352	0.915
x2 = 0.9542	1010.78	1006.24	–	1616.9	1577.5	–	1.729	1.254	0.866
x2 = 0.9703	1006.89	1002.81	–	–	1570.9	–	1.453	1.074	0.775
x2 = 0.98	1004.1	1000.33	–	–	1557.9	–	1.278	0.962	0.719
x2 = 0.9903	1000.7	997.3	–	–	1547.6	–	1.083	0.839	0.657
x2 = 0.9925	999.91	996.59	–	–	1543.9	–	1.04	0.812	0.644
x2 = 0.9951	998.95	995.73	–	1577.9	1539.4	–	0.99	0.779	0.627
